# ChEMBL document CHEMBL1201862, “PubChem BioAssay data set” (2004)
# Active and inactive are the calls of the source. Cut-off read from the data, not from the text of the source, for most assays here: actives have a measured EC50 and inactives only a lower limit.
# Experiments:
# [1] = system: Streptococcus sp. 'group A'; test: Streptococcus pyogenes SK(-)GAS viability under kanamycin – luminescence, BacTiterGlo, confirmation, counter-screen for streptokinase expression inhibitor project, dose response (AID 1900); format: functional, organism-based
# [2] = target: T1, Streptokinase A (Streptococcus pyogenes serotype M1, UniProt P10520); test: viability-normalized secreted streptokinase activity reduction – plasminogen activation absorbance, OD405, dose response (AID 1914); format: functional, Streptococcus pyogenes M1 GAS;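 note: secreted streptokinase activity via plasminogen activation per viability signal from cell pellet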
# T1 sequence (P10520 whole entry): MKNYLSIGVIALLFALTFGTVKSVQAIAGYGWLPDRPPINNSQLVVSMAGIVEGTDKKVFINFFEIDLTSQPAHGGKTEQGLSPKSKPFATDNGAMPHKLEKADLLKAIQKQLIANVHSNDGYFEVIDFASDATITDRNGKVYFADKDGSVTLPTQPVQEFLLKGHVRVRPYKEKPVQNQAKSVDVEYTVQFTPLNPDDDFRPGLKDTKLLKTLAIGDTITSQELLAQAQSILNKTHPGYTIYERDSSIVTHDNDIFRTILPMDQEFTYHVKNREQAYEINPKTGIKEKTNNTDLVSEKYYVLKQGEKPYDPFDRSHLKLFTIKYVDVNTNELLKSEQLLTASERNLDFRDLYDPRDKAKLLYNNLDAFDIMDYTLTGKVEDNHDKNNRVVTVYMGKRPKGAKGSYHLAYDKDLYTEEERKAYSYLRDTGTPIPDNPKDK
# [3] = system: Streptococcus; test: GAS UMAA2166 growth inhibition – luminescence, BacTiterGlo, counter-screen for streptokinase expression inhibitor project, dose response (AID 1915); format: functional, organism-based;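 note: potency for reduction of bacterial viability or growth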
# [4] = target: T2, Heat shock factor protein 1 (Mus musculus, UniProt P38532); test: enhancement of HSF1-driven luciferase signal – cell-based, NIH3T3, luminescence, dose retest, confirmation (AID 435004); format: functional;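 note: stress induced by proteasome inhibitor MG132 added 30 min after compound; luciferase reporter driven by HSF1 response element in NIH3T3 cells; actives raise luminescence as potentiators of the MG132 stress response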
# T2 sequence (P38532 whole entry): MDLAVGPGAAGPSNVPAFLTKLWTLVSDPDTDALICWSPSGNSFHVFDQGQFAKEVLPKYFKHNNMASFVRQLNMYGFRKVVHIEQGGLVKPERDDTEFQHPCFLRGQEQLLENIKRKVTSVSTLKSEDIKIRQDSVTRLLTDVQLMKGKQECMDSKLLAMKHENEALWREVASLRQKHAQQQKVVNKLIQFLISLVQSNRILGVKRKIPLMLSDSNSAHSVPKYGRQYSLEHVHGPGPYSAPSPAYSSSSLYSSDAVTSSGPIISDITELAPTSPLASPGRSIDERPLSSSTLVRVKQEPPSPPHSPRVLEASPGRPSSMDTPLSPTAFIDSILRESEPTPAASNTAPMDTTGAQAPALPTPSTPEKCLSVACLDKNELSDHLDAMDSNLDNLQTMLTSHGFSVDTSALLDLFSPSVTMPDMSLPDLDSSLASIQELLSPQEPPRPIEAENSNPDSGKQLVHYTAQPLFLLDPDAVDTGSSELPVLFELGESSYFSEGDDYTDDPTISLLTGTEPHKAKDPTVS
# [5] = target: Luciferin 4-monooxygenase (Photinus pyralis, UniProt P08659); test: inhibition of purified Photinus pyralis luciferase – biochemical, luminescence, dose response (AID 1891)
# Chain of Luciferin 4-monooxygenase (P08659 whole entry): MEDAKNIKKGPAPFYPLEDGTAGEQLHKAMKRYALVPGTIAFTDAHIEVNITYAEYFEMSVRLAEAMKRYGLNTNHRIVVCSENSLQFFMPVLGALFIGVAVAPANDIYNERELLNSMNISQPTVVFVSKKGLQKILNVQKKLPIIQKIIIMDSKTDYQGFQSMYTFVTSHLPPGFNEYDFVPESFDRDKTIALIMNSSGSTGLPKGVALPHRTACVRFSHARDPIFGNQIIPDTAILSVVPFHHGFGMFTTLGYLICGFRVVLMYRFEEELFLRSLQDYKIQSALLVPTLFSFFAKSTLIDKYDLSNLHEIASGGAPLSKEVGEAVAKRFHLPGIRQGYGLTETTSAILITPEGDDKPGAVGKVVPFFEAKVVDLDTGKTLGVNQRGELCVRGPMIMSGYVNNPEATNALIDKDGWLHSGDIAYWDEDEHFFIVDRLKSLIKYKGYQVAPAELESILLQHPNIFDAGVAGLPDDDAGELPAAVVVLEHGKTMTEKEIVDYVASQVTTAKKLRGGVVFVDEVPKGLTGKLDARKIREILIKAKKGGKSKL
# [6] = Luminescence Cell-Based Dose Confirmation HTS to Identify Inhibitors of Platelet Dense Granule Release. [Related pubchem assays: 1663 (Primary HTS), 1678 (Summary of Project)]; format: functional
# [7] = Luminescence Cell-Based Dose Retest to Confirm Inhibitors of Cancer Stem Cells. [Related pubchem assays (depositor defined):AID2717, AID2721]; format: functional; settings: Homo sapiens
# [8] = luciferase reporter signal suppression in cells – H4 neuroglioma cells, luminescence, dose response (AID 1990); format: functional, cell-based
# [9] = target: T2, Heat shock factor protein 1; test: decrease of HSF1-responsive luciferase luminescence – cell-based, NIH3T3, dose retest, confirmation (AID 2382); format: functional;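 note: NIH3T3 fibroblasts with HSF1-driven luciferase reporter stressed by proteasome inhibitor MG132; luminescence from HSF1-driven luciferase expression after 8 hours of MG132 stress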
# [10] = Luminescence Cell-Based Dose Response HTS to Identify Inhibitors of 5'UTR Stem-Loop Driven Prion Protein mRNA Translation in H4 Neuroglioblastoma Cells. [Related pubchem assays: 1827 (Project Summary), 1813 (Primary HTS)]; format: functional
# [11] = alpha-synuclein stem-loop luciferase translation blockers – H4 neuroglioma cells, luminescence, confirmation (AID 1988); format: functional, cell-based
# [12] = target: T3, Corticotropin-releasing factor receptor 2/Corticotropin-releasing factor-binding protein (Homo sapiens, UniProt P24387+Q13324); test: activators of CRF receptor 2 with binding protein – uHTS hits, confirmation (AID 602473); format: functional; settings: read-out: EC50_Mean
# T3 sequence (Q13324 whole entry): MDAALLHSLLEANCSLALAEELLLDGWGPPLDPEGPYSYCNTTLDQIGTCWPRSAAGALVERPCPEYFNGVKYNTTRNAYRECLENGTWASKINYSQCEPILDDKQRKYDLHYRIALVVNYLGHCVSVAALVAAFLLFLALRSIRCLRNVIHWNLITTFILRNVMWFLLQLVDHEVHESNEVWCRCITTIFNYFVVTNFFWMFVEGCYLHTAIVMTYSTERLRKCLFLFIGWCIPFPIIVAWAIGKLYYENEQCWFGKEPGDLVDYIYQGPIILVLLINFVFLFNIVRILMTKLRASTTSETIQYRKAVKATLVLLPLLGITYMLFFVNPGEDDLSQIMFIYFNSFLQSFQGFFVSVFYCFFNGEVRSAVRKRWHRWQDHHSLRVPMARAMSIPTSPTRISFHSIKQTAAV
# T3 sequence (P24387 whole entry): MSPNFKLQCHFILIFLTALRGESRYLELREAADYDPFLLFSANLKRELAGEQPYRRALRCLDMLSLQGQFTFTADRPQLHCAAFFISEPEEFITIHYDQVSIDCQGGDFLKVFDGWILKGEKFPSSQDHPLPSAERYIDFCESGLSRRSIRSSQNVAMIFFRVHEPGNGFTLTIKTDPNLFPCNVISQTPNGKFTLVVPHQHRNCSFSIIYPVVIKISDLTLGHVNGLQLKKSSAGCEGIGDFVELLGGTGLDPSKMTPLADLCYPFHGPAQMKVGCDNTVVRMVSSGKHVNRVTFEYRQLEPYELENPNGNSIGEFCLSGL
# [13] = viability of uninfected HEp-2 cells – cell-based, HTS, cytotoxicity control for RSV inhibitor project, dose response (AID 2410); format: functional; settings: human respiratory syncytial virus
# [14] = HIV-1 AD8 envelope cell-cell fusion blockers – cherry-pick, dose response (AID 652062); format: functional, cell-based;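 note: luciferase signal from cell-cell fusion driven by HIV-1 clade B AD8 Env; potency is for inhibitors of fusion seen as a drop in luminescence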
# [15] = target: Cytochrome P450 2C9 (Homo sapiens, UniProt P11712)
# Chain of Cytochrome P450 2C9 (P11712 whole entry): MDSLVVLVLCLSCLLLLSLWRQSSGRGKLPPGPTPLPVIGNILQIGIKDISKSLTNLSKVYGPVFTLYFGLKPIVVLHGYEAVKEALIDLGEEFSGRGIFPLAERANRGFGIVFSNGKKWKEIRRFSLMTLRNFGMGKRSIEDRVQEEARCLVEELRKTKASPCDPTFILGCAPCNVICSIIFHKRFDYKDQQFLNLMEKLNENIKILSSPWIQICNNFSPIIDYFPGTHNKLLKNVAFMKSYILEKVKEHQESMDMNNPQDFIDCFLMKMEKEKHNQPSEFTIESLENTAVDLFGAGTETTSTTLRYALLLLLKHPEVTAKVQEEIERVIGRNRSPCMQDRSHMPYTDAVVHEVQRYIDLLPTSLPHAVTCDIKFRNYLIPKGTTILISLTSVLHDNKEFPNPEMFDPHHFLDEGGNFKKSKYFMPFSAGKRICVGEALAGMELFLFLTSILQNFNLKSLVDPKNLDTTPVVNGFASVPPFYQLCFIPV
# [16] = Luminescence Cell-Based Dose Response HTS to Identify Activators of Luciferase Translation or Activity in H4 […] Cells. [Related pubchem assays: 1829 (Project Summary), 1814 (Primary HTS)]; format: functional
# [17] = system: H4; test: Luminescence Cell-Based Dose Response HTS to Identify Activators of 5'UTR Stem-Loop Driven Prion Protein mRNA Translation in H4 Neuroglioblastoma Cells. [Related pubchem assays: 1829 (Project Summary), 1814 (Primary HTS)]; format: functional; settings: Homo sapiens
structure (smiles),measurement,setting,value
COc1ccc(C(=O)OC2CCN(c3ncc(C(F)(F)F)cc3Cl)CC2)cc1,EC50,[1],66.5 µM (active)
same,EC50,[2],> 150 µM (not active)
same,EC50,[3],39.7 µM (active)
Cc1cccc(-c2cc(C(=O)Nc3ccncc3)c3ccccc3n2)c1,EC50,[4],43.1 µM (active)
Cc1c(C#N)c(N)nc2c3c(sc12)NC(=O)CC3c1ccc(F)cc1 (configuration not stated),EC50,[5],> 112 µM (not active)
same,EC50,[6],> 112 µM (not active)
O=S(=O)(Nc1cccc(-c2ccc3nncn3n2)c1)c1cc(F)ccc1F,EC50,[5],> 112 µM (not active)
same,EC50,[6],> 112 µM (not active)
CCN(CC)S(=O)(=O)c1cccc(NC(=O)COC(=O)CCC(=O)c2ccc(F)cc2)c1,EC50,[5],> 112 µM (not active)
same,EC50,[6],> 112 µM (not active)
Oc1ccc(-c2cnc(-c3ccc(O)cc3)nc2)cc1,EC50,[4],4.99 µM (active)
same,AC50,[7],0.342 µM (active)
COc1ccc(NC(=O)CSc2nnc(Cn3cnc([N+](=O)[O-])n3)n2C)cc1,EC50,[4],> 260 µM (inactive)
Cc1ccnc(NS(=O)(=O)c2ccc(NC(=O)COc3ccccc3)cc2)n1,EC50,[8],> 120 µM (not active)
same,EC50,[9],> 195 µM (not active)
same,EC50,[10],> 120 µM (not active)
same,EC50,[11],> 120 µM (not active)
CCc1ccccc1/N=C/c1c(C)c(C#N)c2nc3ccccc3n2c1O,EC50,[12],4.75 µM (active)
CCOc1ccc(C2C(C#N)=C(N)N3C(=C2C#N)Sc2ccccc23)cc1 (configuration not stated),EC50,[12],8.06 µM (active)
O=C1NC(c2ccccc2)=C(c2nc3ccccc3s2)C(c2ccc(F)cc2)N1 (configuration not stated),EC50,[8],> 60 µM (not active)
same,CC50,[13],10.4 µM (active)
same,EC50,[10],> 120 µM (not active)
same,EC50,[11],20.8 µM (active)
COc1cccc(S(=O)(=O)N2CC3(CN(C(=O)Nc4cccc(F)c4)[C@H](CO)c4[nH]c5cc(OC)ccc5c43)C2)c1,AC50,[14],22 µM (active)
COc1cc(C2C(C#N)=C(N)N(Nc3ccccc3)C3=C2C(=O)CC(C)(C)C3)ccc1OCc1ccccc1 (configuration not stated),EC50,[8],13.4 µM (active)
same,AC50,[15],0.794 µM (inconclusive)
same,EC50,[10],18.7 µM (active)
same,EC50,[11],> 120 µM (not active)
COc1cc2nc(S)nc(NCc3ccc(Cl)cc3)c2cc1OC,EC50,[4],> 260 µM (inactive)
COC(=O)c1nc(NC(=S)NC(=O)c2cccs2)sc1C,EC50,[1],9.59 µM (active)
same,EC50,[2],> 150 µM (not active)
same,EC50,[3],> 150 µM (not active)
C=C1CCC2[C@](C)(CO)[C@H](O)CC[C@@]2(C)[C@@H]1C/C=C1\C(=O)OC[C@H]1O (some centres not stated),EC50,[16],> 120 µM (not active)
same,EC50,[17],33 µM (active)
O=C(NCc1nnc(SCc2ccccc2)n1-c1ccccc1)C12CC3CC(CC(C3)C1)C2,EC50,[4],> 260 µM (inactive)
CCCCc1ccc(NC(=O)NCc2ccccn2)cc1,EC50,[1],> 150 µM (not active)
same,EC50,[2],> 150 µM (not active)
same,EC50,[3],> 150 µM (not active)
Cc1ccsc1/C=N/N1CCN(C2c3ccccc3-c3ccccc32)CC1,EC50,[5],> 112 µM (not active)
same,EC50,[6],> 112 µM (not active)
Cc1ccc(NC(=O)N2CCCC2C(=O)Nc2c(C)cc(C)cc2C)cc1 (configuration not stated),EC50,[4],> 260 µM (inactive)
Cn1c(NNC(=O)c2ccccc2F)cc(=O)n(C)c1=O,EC50,[8],> 120 µM (not active)
same,EC50,[10],> 120 µM (not active)
same,EC50,[11],> 120 µM (not active)
C/C(=N\NC(=O)c1ccc(O)cc1)c1cccc(NC(=O)c2ccccc2C)c1,EC50,[1],> 150 µM (not active)
same,EC50,[2],> 150 µM (not active)
same,EC50,[3],> 150 µM (not active)
COc1cnc(-c2ccccn2)nc1Oc1ccccc1Cl,EC50,[1],> 150 µM (not active)
same,EC50,[2],> 150 µM (not active)
same,EC50,[3],> 150 µM (not active)
CC(C)NC(=O)NC(=O)COc1ccc(Br)cc1Br,EC50,[4],> 260 µM (inactive)
O=Nc1c(-c2ccccc2)[nH]n(-c2ccccc2)c1=O,EC50,[4],3.87 µM (active)
COC(=O)c1ccc(Oc2nc(C)cc(Oc3ccccc3)n2)cc1,EC50,[5],> 112 µM (not active)
same,EC50,[6],> 112 µM (not active)
COc1cccc(CNC(=O)c2nnn(CC(=O)Nc3ccc(Br)cc3)c2N)c1,EC50,[8],46.9 µM (active)
same,EC50,[10],103 µM (active)
same,EC50,[11],11 µM (active)
CCCCOC(=O)N/N=C/C=C/c1ccccc1,EC50,[5],> 112 µM (not active)
same,EC50,[6],> 112 µM (not active)
CC(C)CC(=O)Nc1ccc(C(=O)NNC(=S)NC(=O)C2CCCCC2)cc1,EC50,[8],12.5 µM (active)
same,EC50,[1],1.65 µM (active)
same,EC50,[3],5.23 µM (active)
same,EC50,[10],14.8 µM (active)
same,EC50,[11],12.4 µM (active)
COc1cccc(CNc2ccc(Br)cn2)c1O,EC50,[4],34.1 µM (active)
COC(=O)c1sccc1NC(=O)Nc1ccc(OC)cc1,EC50,[5],0.358 µM (active)
same,EC50,[6],1.33 µM (active)
CC1(c2ccc(OC(F)F)cc2)NC(=O)N(CC(=O)Nc2cccnc2Cl)C1=O (configuration not stated),EC50,[12],15 µM (active)
CC(C)Cc1csc(NC(=O)c2ccc(Br)cc2)c1C(=O)O,EC50,[1],3.59 µM (active)
same,EC50,[2],> 150 µM (not active)
same,EC50,[3],6.59 µM (active)
Nn1cnnc1N/N=C/c1cc([N+](=O)[O-])c(Cl)cc1Cl,EC50,[4],> 260 µM (inactive)
O=C1c2ccccc2C(=O)c2c1cccc2-n1nnc2ccccc21,EC50,[8],16.3 µM (active)
same,EC50,[10],> 120 µM (not active)
same,EC50,[11],> 120 µM (not active)
O=C(CCCCCNC(=O)c1ccccc1)N=Nc1c(O)[nH]c2c(Br)cc(Br)cc12,EC50,[1],6.76 µM (active)
same,EC50,[2],> 150 µM (not active)
same,EC50,[3],28.4 µM (active)
Cc1onc(C(=O)Nc2ccc3c(c2)OCO3)c1[N+](=O)[O-],EC50,[5],> 112 µM (not active)
same,EC50,[6],> 112 µM (not active)
Fc1ccc(-n2cc(-c3ccccc3)c3c(NN4CCOCC4)ncnc32)cc1,EC50,[8],> 120 µM (not active)
same,EC50,[11],> 120 µM (not active)
